Holding throughout (format): functional
Test [1] concerns Helicobacter pylori. Description: Antimicrobial activity against ciprofloxacin-resistant Helicobacter pylori 14 containing gyrA A272G mutation by Etest method.
Test [2] concerns Helicobacter pylori. Description: Antimicrobial activity against ciprofloxacin-resistant Helicobacter pylori 4 containing gyrA G271T mutation by Etest method.
Test [3] relates to Helicobacter pylori. Description: Antimicrobial activity against ciprofloxacin-resistant Helicobacter pylori 12 containing gyrA G271A mutation by Etest method.
The test system of test [4] is Helicobacter pylori. Description: Antimicrobial activity against ciprofloxacin-resistant Helicobacter pylori 26 containing gyrA C261A mutation by Etest method.
Test [5] concerns Helicobacter pylori. Description: Antimicrobial activity against ciprofloxacin-resistant Helicobacter pylori 4 containing gyrA C261G mutation by Etest method.

Converted amounts (≈) assume the structure as drawn.

Turning to `O=C(O)c1cn(C2CC2)c2cc(N3CCNCC3)c(F)cc2c1=O` [CIPROFLOXACIN], the MIC is 16 µg/mL (≈ 48.3 µM) in test [1]; 8 µg/mL (≈ 24.1 µM) in test [2]; 16 µg/mL (≈ 48.3 µM) in test [3]; 4 µg/mL (≈ 12.1 µM) in test [4]; 4 µg/mL (≈ 12.1 µM) in test [5].

The values above are taken from ChEMBL document CHEMBL1142130, “Quinolone resistance in Helicobacter pylori isolates in Germany” (2007).
